Among the data in publication PMC9658017, “Hydroxygenkwanin Improves the Efficacy of Cytotoxic Drugs in ABCG2-Overexpressing Multidrug-Resistant Cancer Cells” (International Journal of Molecular Sciences, 2022) are EC50 values, retold here.

The target of this assay is T1, ABCG2 (Homo sapiens, UniProt Q9UNQ0).
T1 sequence (Q9UNQ0 1-655): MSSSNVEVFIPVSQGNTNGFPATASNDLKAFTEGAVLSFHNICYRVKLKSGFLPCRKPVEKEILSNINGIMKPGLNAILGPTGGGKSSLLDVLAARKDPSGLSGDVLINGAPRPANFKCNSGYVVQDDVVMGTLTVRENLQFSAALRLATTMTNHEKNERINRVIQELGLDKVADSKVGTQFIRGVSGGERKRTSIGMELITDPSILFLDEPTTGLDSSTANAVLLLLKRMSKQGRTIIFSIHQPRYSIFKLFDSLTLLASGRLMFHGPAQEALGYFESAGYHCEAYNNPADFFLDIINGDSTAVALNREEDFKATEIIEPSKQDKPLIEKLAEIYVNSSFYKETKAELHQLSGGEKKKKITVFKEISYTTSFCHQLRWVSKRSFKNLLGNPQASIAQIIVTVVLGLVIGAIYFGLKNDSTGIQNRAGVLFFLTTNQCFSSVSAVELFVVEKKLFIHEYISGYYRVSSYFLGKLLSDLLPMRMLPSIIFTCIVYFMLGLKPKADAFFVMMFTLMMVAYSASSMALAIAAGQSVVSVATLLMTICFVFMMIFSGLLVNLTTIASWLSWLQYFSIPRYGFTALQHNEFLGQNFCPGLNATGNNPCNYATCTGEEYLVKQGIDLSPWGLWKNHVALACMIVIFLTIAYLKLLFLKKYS
Put plainly: biochemical.

For `COc1cc(O)c2c(=O)cc(-c3ccc(O)c(O)c3)oc2c1` [HGK, Hydroxygenkwanin], the EC50 – broadly, the midpoint of the concentration-response curve – was roughly 19 nM.
